This is an account of results in US10562890B2, “Cancer therapeutics” (UNIVERSITY OF VIRGINIA PATENT FOUNDATION, priority 2014, dated 2020).

The target of series [1] is CBFβ-SMMHC binding to the RUNX1 Runt domain. As to conditions: U.S. Pat. No. 8,748,618; read-out: IC50, binding of CBF-SMMHC to the RUNX1 Runt domain; cited from earlier work.
Series [2] addresses CBFβ binding to the RUNX1 Runt domain (Homo sapiens (Human), UniProt Q13951). Briefly: FRET assay, inhibition of CBFβ binding to the RUNX1 Runt domain. As to conditions: for IC50: inhibition of wild-type CBFβ binding to the RUNX1 Runt domain, NA = not active; for activity in FRET assay (structure-activity relationship, in words): relative to Al-4-57 or parent compounds. The source says:
Fluorescence Resonance Energy Transfer (FRET) Assay:
As described in U.S. Pat. No. 8,748,618 and published PCT application WO2010/132684, a FRET assay can be used to effectively monitor the inhibition of CBF binding to the Runt domain of RUNX proteins (as well as for CBFβ-SMMHC binding to the Runt domain of RUNX proteins). For the assay, the green fluorescent protein derivative Cerulean is fused to the N-terminus of the Runt domain and the green fluorescent protein derivative Venus to the N-terminus of CBFβ (Gorczynski, M. J., J. Grembecka, et al. (2007), “Allosteric inhibition of the protein-protein interaction between the leukemia-associated proteins Runx1 and CBFbeta.” Chem Biol 14(10): 1186-97), or to CBFβ-SMMHC (Illendula, A. et al. Chemical biology. A small-molecule inhibitor of the aberrant transcription factor CBFbeta-SMMHC delays leukemia in mice. Science 347, 779-784, doi:10.1126/science.aaa0314 (2015)). The ratio of the emission intensities at 525 nm and 474 nm, measured after excitation at 433 nm, was used as the readout in this assay. The dynamic range for the FRET assay was determined by adding a 30-fold excess of untagged CBFβ (or CBFβ-SMMHC) to the assay and the associated change in the FRET ratio was defined as 100% inhibition.

A further series deals with 11 leukemia cell lines. The series can be described thus: Viability of a panel of 11 leukemia cell lines. As to conditions: 48 hours of treatment. It counts as cell-based. The source says: Compounds Al-4-88, Al-4-57, Al-10-47, Al-10-104, and Al-14-91 were screened against a panel of 11 leukemia cell lines with varying genotypes.
The viability is represented as the percent DAPI negative cells relative to DMSO control. Each symbol/color in the graphs of FIG. 4 represent an individual cell line. The symbol represents the mean of independent replicates and the error bars represent the SEM. The table indicates the morphology, type of leukemia, and known mutations for each of the 11 cell lines.

The conditions of series [3]: previous work, Illendula et al. Science 2015; cited from earlier work.
For the next series, the system named is H520 lung cancer cells. Briefly: MTT growth assay, H520 cells. It counts as cell-based. Particulars: H520, 10 μM, 72 hrs. As for the experimental part: (§1) Activity of Al-10-104 was tested using several lung cancer cell lines and one immortalized, non-transformed lung cell line. […] Data for the squamous cell carcinoma of the lung cell line H520 and the immortalized normal lung epithelial cell line BEAS-2B are shown in FIG. 10.
(§2) H520 cells were cultured in RPMI 1640 medium, supplemented with fetal bovine serum (10% final concentration), Hepes (1%), and sodium priruvate (1%). The MTT assay used 4×10^5/ml cells. BEAS-2B cells were cultured in DMEM medium with fetal bovine serum (10% final concentration). The MTT assay for the BEAS-2B cell line was performed using 3.5×10^5/ml cells.
(§3) Al-4-88 had no effect on either cell line.
For orientation: Formazan colour is commonly taken as a measure of viable cells.

Series [4] relates to BEAS-2B normal lung cells. The series can be described thus: MTT growth assay, BEAS-2B cells. It counts as cell-based. As to conditions: 10 μM, 72 hrs. As for the experimental part:
as §1, §2, §3

For series [5], the system named is T-ALL cell lines Jurkat, HBP-ALL, Loucy, and KOPTK1. Briefly: Proliferation of T-ALL cell lines. It counts as cell-based, human.
The subject of the next series is MLL-AF4 leukemia cells. The series can be described thus: Cell death of MLL-AF4 leukemia cells. It counts as cell-based, human.
Series [6] has as its target binding of CBFβ to RUNX1 in SEM cells (Homo sapiens (Human), UniProt Q13951). Briefly: Co-immunoprecipitation of CBFβ with RUNX1 in SEM cells. It counts as cell-based. As to conditions: 10 μM, 6 hours. The method, then: To test whether the wild-type CBFβ Inhibitors can disrupt the binding of CBFβ to RUNX1 in cells, co-immunoprecipitation experiments were performed in the SEM cell line. Co-immunoprecipitation assays of lysates from […] SEM cells were treated with Al-4-88^1, Al-10-47, Al-10-104, Al-12-126 and Al-14-91 at 10 μM for 6 hours. RUNX1-bound CBFβ protein levels and immunoprecipitated RUNX1 are shown on the top panel of FIG. 2A. Quantification of RUNX1 bound CBFβ is shown on the bottom graph.

A short description of series [7]: Aqueous solubility in 0.25% DMSO by NMR spectroscopy. It counts as physicochemical. As to conditions: kinetic from dmso stock. The method, then:
Al-10-104, Al-12-126, and Al-14-91 were all soluble at concentrations above 100 μM. […] As the Runt domain is highly conserved among all three RUNX family members, we would expect to see similar effects on binding to RUNX2 or RUNX3. Therefore, the action of the inhibitors will likely affect the activity of all three RUNX family members.

The nature of series [8]: Sedative effects and tolerability in mice after IP administration. It counts as in vivo. As to conditions: HCl salts with Captisol, IP at 100 mg/kg. The source says: “NA” indicates not active. […] Reasoning that this effect depended on the ability of the compound to cross the blood brain barrier (BBB), compounds Al-12-126 and Al-14-91 have appended morpholine ring substituents to the 5 position of the pyridine ring to increase the polarity of the compounds and thereby limit BBB penetration.

The test system of the next series is MCF10A-5E cells. The series can be described thus: Multiacini formation in 3D culture of MCF10A-5E cells. It counts as cell-based. Particulars: shRUNX1 or control cells, 3D culture 10-11 days, compared to carrier control or Al-4-88. The source says: CBFβ inhibitors altered acinar morphogenesis of the basal-like (triple negative) breast epithelial cells and blocked survival of basal-like breast cancer cells in 3D organotypic culture. To evaluate whether CBFβ inhibition would influence the multicellular organization of basal-like breast epithelia, 3D culture of MCF10A-5E cells was used. Knockdown of RUNX1 in these cells delayed proliferation arrest and promoted the formation of nonspherical acini, indicating a role for RUNX1 during morphogenesis.
The multiacini resulting from CBFβ inhibition were not radially symmetric, thereby arguing against a general defect in cell polarity or proliferation arrest. Instead, the inhibitors appeared to be initiating a nascent branching program that is reminiscent of when TGFβ-family signaling is impaired.
FIG. 9A: MCF10A-5E cells stably expressing shRUNX1 or shGFP control were grown in 3D culture for 10-11 days with the indicated compounds and imaged by Brightfield microscopy. The total number of multiacini per chamber was counted and scaled to the shGFP DMSO control. Data are shown as the mean±SEM of eight independent cultures.

Setting [9] is: aqueous, 0.25% DMSO, NMR spectroscopy, read-out: aqueous solubility.

For orientation: IC50 means the concentration that gives 50% inhibition. Usually solubility stands for the concentration that dissolves in the medium under given conditions.

Values after ≈ are worked out from the molar mass of the structure shown. Where two headings read alike, the source gives them in different places. Bounds are passed on as bounds.

Sequence of CBFβ binding to the RUNX1 Runt domain (Q13951 1-141): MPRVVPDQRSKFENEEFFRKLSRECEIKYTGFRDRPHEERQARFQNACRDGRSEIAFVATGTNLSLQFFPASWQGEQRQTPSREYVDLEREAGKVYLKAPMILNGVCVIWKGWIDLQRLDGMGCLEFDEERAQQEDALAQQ
Sequence of binding of CBFβ to RUNX1 in SEM cells (Q13951 whole entry): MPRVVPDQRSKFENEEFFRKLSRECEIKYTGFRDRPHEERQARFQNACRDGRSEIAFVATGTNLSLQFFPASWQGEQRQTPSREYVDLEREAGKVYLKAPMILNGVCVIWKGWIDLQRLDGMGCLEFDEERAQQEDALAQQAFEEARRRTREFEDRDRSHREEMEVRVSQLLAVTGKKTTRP

On to `COc1ccc2[nH]c(-c3ccccn3)nc2c1` [Al-4-57], for which the 50% inhibitory concentration (IC50) in [1] was 22 µM; in series [2], 34 µM. The “percent viability (DAPI negative cells relative to DMSO)” value in the series on 11 leukemia cell lines is listed as “only very weak activity”. Also, in series [3], the half-life in mice result is recorded as “short half-life”.
For `c1ccc(-c2nc3ccccc3[nH]2)nc1` [Al-4-88, reference compound], the “cell growth (MTT assay)” value (with H520 lung cancer cells; in [4]) was “no effect” throughout. For the same compound, in the series with 11 leukemia cell lines, the “percent viability (DAPI negative cells relative to DMSO)” value was “No activity”. Moreover, the proliferation entry in [5] is “did not have such an effect”.
With `FC(F)(F)Oc1ccc2[nH]c(-c3ccccn3)nc2c1` [Al-10-47], the cell death entry in the series on MLL-AF4 leukemia cells is “induced cell death”. Also, in [6], the “RUNX1-bound CBFβ (co-immunoprecipitation)” value (shortened to “RUNX1-bound CBFβ”) is “only a modest effect”. This compound also showed a concentration for half-maximal inhibition (IC50) in series [2] of 3.19 ± 0.5 µM. In addition, the “percent viability (DAPI negative cells relative to DMSO)” value in the series with 11 leukemia cell lines is recorded as “significant inhibition of the majority of the cell lines”. The amount in solution in series [7] (solubility) came to 0.44 µM (≈ 0.123 µg/mL).
`COc1cnc(-c2nc3cc(OC(F)(F)F)ccc3[nH]2)c(OC)c1` [Al-12-16] came in with a 50% inhibitory concentration (IC50) in series [2] of 1.69 ± 0.18 µM.
As for `FC(F)(F)Oc1ccc2[nH]c(-c3ccc(OCCN4CCOCC4)cn3)nc2c1` [Al-12-126], in series [8], the sedative effects entry is listed as “did not induce the sedative effects” and the tolerability result is on record as “well-tolerated”. The “RUNX1-bound CBFβ” value in [6] is “reduction in binding”. The compound further gave an IC50 in [2] of 8.91 ± 1.3 µM. The solubility in [7] (setting [9]) was more than 100 µM.
Consider `O=C(O)c1cccnc1-c1nc2cc(OC(F)(F)F)ccc2[nH]1` [Al-12-150], for which the IC50 in series [2] is 48.9 ± 1.6 µM.
Turning to `CN(C)c1cccnc1-c1nc2cc(OC(F)(F)F)ccc2[nH]1` [Al-14-18], the half-inhibitory concentration (IC50) in [2] turned out to be 4.97 ± 0.27 µM.
Regarding `FC(F)(F)Oc1ccc2[nH]c(-c3ncccc3OCCN3CCOCC3)nc2c1` [Al-14-55], the half-maximal inhibitory concentration (IC50) in series [2] was 4.83 ± 0.32 µM.
Take `COc1ccnc(-c2nc3cc(OC(F)(F)F)ccc3[nH]2)c1OC` [Al-14-72]: in [2], the concentration for half-maximal inhibition (IC50) worked out at 1.72 ± 0.23 µM.
Regarding `COc1cc(OCCN2CCOCC2)cnc1-c1nc2cc(OC(F)(F)F)ccc2[nH]1` [Al-14-91], in series [8], the sedative effects result was “did not induce the sedative effects” and the tolerability result was “well-tolerated”. Besides, in [6], the “RUNX1-bound CBFβ” value is “reduction in binding”. Besides, the half-inhibitory concentration (IC50) in [2] stood at 2.97 ± 0.53 µM. Moreover, the “percent viability (DAPI negative cells relative to DMSO)” value with 11 leukemia cell lines is “significant inhibition of the majority of the cell lines”. Moreover, in the series on MCF10A-5E cells, the “formation of multiacinar structures” value is given as “dramatic increase”. Also, the solubility in [7] (setting [9]) is more than 100 µM.
Take `COc1ccc2[nH]c(-c3ccccc3)nc2c1` [Compound 2a, 5-methoxy-2-phenyl-1H-benzo[d]imidazole]: the “activity in FRET assay (structure-activity relationship, in words)” value (“activity in FRET assay” below) in series [2] is on record as “complete loss of activity”.
Take `COc1ccc2[nH]c(-c3ccco3)nc2c1` [Compound 2b, 2-(furan-2-yl)-5-methoxy-1H-benzo[d]imidazole]: in series [2], the “activity in FRET assay” value is recorded as “complete loss of activity”.
Same read-out and setting: as for `c1ccc(-c2nc3ccccc3[nH]2)nc1` [Compound 3a, 2-(pyridin-2-yl)-1H-benzo[d]imidazole], the entry is “complete loss of activity”.
In the case of `CCOc1ccc2[nH]c(-c3ccccn3)nc2c1` [Compound 3b, 5-ethoxy-2-(pyridin-2-yl)-1H-benzo[d]imidazole], in [2], the IC50 was not below 34.3 µM.
The same measure, in the same setting: for `Fc1ccc2[nH]c(-c3ccccn3)nc2c1` [Compound 3c, 5-fluoro-2-(pyridin-2-yl)-1H-benzo[d]imidazole] the value was not below 34.3 µM.
Regarding `Cc1ccc2[nH]c(-c3ccccn3)nc2c1` [Compound 3d, 5-methyl-2-(pyridin-2-yl)-1H-benzo[d]imidazole], the “activity in FRET assay” value in [2] is “loss of activity”.
Consider `FC(F)(F)c1ccc2[nH]c(-c3ccccn3)nc2c1` [Compound 3f, 2-(pyridin-2-yl)-5-(trifluoromethyl)-1H-benzo[d]imidazole], for which the “activity in FRET assay” value in series [2] is reported as “loss of activity”.
For `COc1cccc2[nH]c(-c3ccccn3)nc12` [Compound 4a, 4-methoxy-2-(pyridin-2-yl)-1H-benzo[d]imidazole], in series [2], the IC50 is not below 34.3 µM and the “activity in FRET assay” value is recorded as “reduced activity”.
As to `COc1ccc2[nH]c(-c3cccc(OC)n3)nc2c1` [Compound 4g, 5-methoxy-2-(6-methoxypyridin-2-yl)-1H-benzo[d]imidazole], the “activity in FRET assay” value in series [2] was “inactive”.
On the same count and under the same terms, for `COc1ccc2[nH]c(-c3cccc(C)n3)nc2c1` [Compound 4h, 5-methoxy-2-(6-methylpyridin-2-yl)-1H-benzo[d]imidazole] the value was “inactive”.
